Data on nine molecules can be found in patent US5863905A, “2',5'-phosphorothioate/phosphodiester oligoadenylates and anti-viral uses thereof” (Temple University-Of The Commonwealth System of Higher …, priority 1997, dated 1999).

Where “and” joins values, the source holds several entries; their conditions need not be identical. Identical values can stand only once. Entries after “also recorded” stand apart in the source; their conditions may differ. Bounds are passed on as bounds.

For one data set, the system named is HIV-1 strain IIIB. Kind of data set: Inhibition of HIV-1-induced syncytia formation (infected centers assay). Type of data set: cell-based. The note with it: for inhibition of syncytia formation (in words): 3×10^-4 M (adenosine 9×10^-4 M); for inhibition of HIV-1-induced syncytia formation: 3×10^-4 M, PBL infected with HIV-1 IIIB, Sup T1 cells, read at 72 h. From the text: FIG. 5A represents the results of an assay performed according to the method of Henderson et al., Virology 182: 186-198 (1991), indicating the inhibition of HIV-1 (IIIB)-induced syncytia formation by adenosine, 2-5A trimer or tetramer core or 2',5'- phosphorothioate/phosphodiester trimer derivatives: ARp *ApA, ASp *ApA, ApARp *A, ApASp *A, ARp *ApApA, ASp *ApApA, ApARp *ApA, ApASp *ApA, ApApARp *A, ApApASp *A.
FIG. 5B is the results of an assay performed according to the method of FIG. 5A with a 2',5'-phosphorothioate/phosphodiester tetramer derivative of 2-5A core.
The infected centers assay as described by Henderson et al., Virology 182: 186-198 (1991), was used to measure the ability of the phosphorothioate/phosphodiester derivatives of 2-5A trimer and tetramer cores to inhibit HIV-1 induced syncytia formation, an indicator of HIV-1 replication in T cells. Freshly isolated peripheral blood lymphocytes (PBL) were treated with 2-5A or derivatives for 2 h and infected with HIV-1 strain IIIB at a m.o.i. of approximately 0.1. The infected PEL were maintained in RPMI-1640 medium supplemented with 10% (v/v) heat-inactivated fetal calf serum at 37° C. in a humidified 5% CO2 in air atmosphere. After 48 h, the cells were washed twice in Hank's balaned salt solution, serially diluted and seeded into multiple wells of a 96-well microtiter plate. Immediately, 2×10^5 exponentially growing Sup T1 cells were added to each well; Sup T1 cells readily form a syncytium with a cell which is productively infected with HIV-1. The wells were examined daily for the presence of syncytia, using a tissue culture microscope. The first signs of syncytia formation can be seen in 12 h, with some complete syncytia developing by 24 h. Final results were read at 72 h. Each syncytium was counted as a single infected cell. The number of syncytia per seeded cell is determined and expressed as an infected center per infected cell. In the control (no 2-5A derivative added), 100% syncytia formation was equivalent to 12±3 syncytia per 200 HIV-1 infected cells.

Data set [1] relates to HIV-1 reverse transcriptase. Kind of data set: HIV-1 reverse transcriptase activity in culture supernatant of infected Sup T1 cells. The note with it: for Percent Inhibition of HIV-1 Reverse Transcriptase: 300 μM (adenosine and adenine 900 μM), 6 h pre-treatment, 96 h post-infection, average of triplicates. The class given is cell-based. As to the method: Sup T1 cells were treated with 2-5A or a phosphorothioate/phosphodiester derivative at 300 μM for 6 hours and then infected with HIV-1 at a multiplicity of infection (M.O.I) of approximately 0.1. Adenosine and adenine were tested at 900 μM. At 96 hours post-infection, culture supernatant was removed and HIV-1 RT activity was assayed in triplicate as described by Henderson et al., Virology 182:186-198 (1991). Briefly in this method, 25 μl of culture supernatant was added to a 50 μl cocktail containing 50 mM Tris (pH 8.0), 20 mM dithiothreitol, 10 mM MgCl2, 60 mM NaCl, 0.05 Nonidet p-40, 5 μg/ml oligodeoxythymidylic acid, 10 μg/ml polyriboadenylic acid, 10 μM deoxythymidine triphosphate and 1 mCi [^32 p]thymidine 5'-triphosphate. The mixture was incubated at 37° C. for 2 hours. Fifty microliters of the cocktail were then spotted onto diethylaminoethyl (DEAE) paper, dried, washed with 2× SSC solution (three times for 10 minutes each time) and 95% ethanol (two times for 5 minutes each time), dried and exposed to radiographic film for 18 to 24 hours at -80° C. The filters were cut and final quantitation was determined by scintillation spectrometry.

For a further data set, the system named is serum phosphodiesterases. Nature of the data set: Stability of 2-5A core derivatives to serum phosphodiesterase. Type of data set: in vitro ADME, fetal calf. The note with it: for Hydrolysis Products / % Hydrolysis: 300 μM, 37° C.; for Hydrolysis Products: 10% fetal calf serum, 6 h, identified by HPLC; for % Hydrolysis: RPMI-1640 + 10% fetal calf serum, 6 h (A2, A3: 20 min); for hydrolysis (in words): serum-containing medium. The method, then: The stability of authentic 2-5A and phosphorothioate/phosphodiester trimer and tetramer core derivatives (300 μM) was determined by incubation in 200 μL of RPMI-1640 medium supplemented with 10% fetal calf serum in 5% CO2 -in-air at 37° C. Aliquots (30 μL) were removed at time zero and 6 hours. The hydrolysis products were identified by HPLC as described in Kariko et al. , Biochemistry 26: 7127-7135 (1987).
No hydrolysis of the phosphorothioate/phosphodiester trimer core derivatives was observed. However, the phosphorothioate/phosphodiester tetramer core derivatives were hydrolyzed from the 5'- or 2',3'-terminus, depending on the location of the phosphorothioate-substituted internucleotide linkage.

A further data set has as its system RNase L. Kind of data set: rRNA cleavage assay in L929 cell extracts (activation of RNase L). The class given is biochemical. As to conditions: 1 h at 30° C., > = no activation up to this concentration. As to the method: FIG. 2A represents the results of a ribosomal RNA cleavage assay with 2',5'-phosphorothioate/phosphodiester trimer core 2-5A derivatives. The procedure was performed according to the method of Kariko et al., Biochemistry 26: 7127-7135 (1987). 2-5A oligomer (phosphodiester internucleotide linkage) is also included for comparison. L929 cell extracts were incubated in the absence (lane 1) or presence of p3 A3 at 10^-8 M (lane 2), ARp *ApA at 10^-6 M (lane 3), ASp *ApA at 10^-6 M (lane 4), ApARp *A at 10^-6 M (lane 5), ApASp *A at 10^-6 M (lane 6) or A3 at 10^-6 M (lane 7). The positions of 28S and 18S rRNA are shown; the arrows indicate the positions of the well-characterized specific cleavage products (SCP) of RNase L.
FIG. 2B represents the results of a ribosomal RNA cleavage assay performed according to the method of FIG. 2A with 2',5'-phosphorothioate/phosphodiester trimer 5'-monophosphate derivatives. L929 cell extracts were incubated in the absence (lane 1) or presence of p3 A3 at 2×10^-9 M (lane 2), pA3 at 10^-6 M (lane 3), pARp *ApA at 10^-7 M (lane 4), pASp *ApA at 10^-7 M (lane 5), pApARp *A at 2×10^-9 M (Lane 6), pApASp *A at 10^-7 M (lane 7).
FIG. 3A represents the results of a ribosomal RNA cleavage assay performed according to the method of FIG. 2A with 2',5'-phosphorothioate/phosphodiester tetramer core 2-5A derivatives. 2-5A oligomer (phosphodiester internucleotide linkage) is also included for comparison. L929 cell extracts were incubated in the absence (lane 1) or presence of p3 A4 at 10^-8 M (lane 2), A4 at 10^-5 M (lane 3), ARp *ApApA at 10^-5 M (lane 4), ASp *ApApA at 10^-5 M (lane 5), ApARp *ApA at 10^-5 M (lane 6), ApASp *ApA at 10^-5 M (lane 7), ApApARp *A at 10^-5 M (lane 8) or ApApASp *A at 10^-5 M (lane 9).
FIG. 3B represents the results of a ribosomal RNA cleavage assay performed according to the method of FIG. 2A with 2',5'-phosphorothioate/phosphodiester tetramer 5'-monophosphate derivatives. L929 cell extracts were incubated in the absence (lane 1) or presence of p3 A4 at 10^-8 M (lane 2), pA4 at 10^-6 M (lane 3), pARp *ApApA at 10^-6 M (lane 4), pASp *ApApA at 10^-6 M (lane 5), pApARp *ApA at 10^-8 M (lane 6), pApASp *ApA at 10^-5 M (lane 7), pApApARp *A at 10^-7 M (lane 8) or pApApASp *A at 10^-7 M (lane 9).
Activation of RNase L by the phosphorothioate/phosphodiester trimer and tetramer 2-5A derivatives was also measured in a rRNA cleavage assay using L929 cell extracts according to the method of Kariko et al. (1987), supra, in which extracts of L929 cells were incubated for 1 h at 30° C. in the presence or absence of 2-5A or 2-5A derivative. […] Authentic p3 A3 was active at 1×10^-8 M (FIG. 2A, lane 2). The corresponding 5'-monophosphates, pARp *ApA, pASp *ApA and pApARp *A, activated at 1×10^-7 M, 1×10^-7 M, and 2×10^-9 M, respectively (FIG. 2B, lanes 4-6), as compared with pA3 which was active at 1×10^-6 M (lane 3).

On to `Nc1ncnc2c1ncn2[C@@H]1O[C@H](CO[P@@](O)(=S)O[C@@H]2[C@H](O)[C@@H](COP(=O)(O)O[C@@H]3[C@H](O)[C@@H](COP(=O)(O)O[C@@H]4[C@H](O)[C@@H](CO)O[C@H]4n4cnc5c(N)ncnc54)O[C@H]3n3cnc4c(N)ncnc43)O[C@H]2n2cnc3c(N)ncnc32)[C@@H](O)[C@H]1O` [ApApARp *A, Adenylyl-(2'-5')-adenylyl-(2'-5')-(PR)-P-thioadenylyl-(2'-5')-adenosine], for which, in the data set on HIV-1 strain IIIB, the “inhibition of syncytia formation (in words)” value is recorded as “most efficient inhibitors” and the “inhibition of HIV-1-induced syncytia formation” value was 90%. Also, the “Percent Inhibition of HIV-1 Reverse Transcriptase” value (from here on “Percent Inhibition”) in data set [1] is listed as 38%. Moreover, in the data set on serum phosphodiesterases, the “Hydrolysis Products” value was “inosine, hypoxanthine; also recorded: ApARp *A”; the “% Hydrolysis” value turned out to be 30%; the “hydrolysis (in words)” value is “degraded from the 5'-terminus; also recorded: hydrolyzed from the 5'-terminus”. Moreover, in the data set on RNase L, the “concentration at which RNase L is activated to cleave rRNA to SCP” value (“concentration” for short) amounted to 10000 nM.

On to `Nc1ncnc2nc[nH]c12` [adenine, reference compound], for which, in the data set on HIV-1 strain IIIB, the “inhibition of syncytia formation (in words)” value was “not able to inhibit syncytia formation”. Moreover, in data set [1], the “inhibition of HIV-1 RT activity (in words)” value was “did not inhibit HIV-1 RT activity” and the “Percent Inhibition” value was 4%.

In the case of `Nc1ncnc2c1ncn2[C@@H]1O[C@H](CO)[C@@H](O)[C@H]1O` [adenosine, reference compound], the results for the “inhibition of syncytia formation (in words)” value in the data set with HIV-1 strain IIIB and in the data set on HIV-1 strain IIIB (listed as Adenosine) were “did not inhibit syncytia formation” and “not able to inhibit syncytia formation”, respectively. The “inhibition of HIV-1 RT activity (in words)” value in data set [1] was “did not inhibit HIV-1 RT activity”. Further, in data set [1], the “Percent Inhibition” value came to 0%.

As to “(PR)-P-thioadenylyl-(2',5')-adenylyl-(2',5')-adenosine [ARp *ApA]”, the “inhibition of HIV-1-induced syncytia formation” value with HIV-1 strain IIIB is recorded as 10%. Besides, the “Percent Inhibition” value in data set [1] was determined as 32%. Further, in the data set on serum phosphodiesterases, the “Hydrolysis Products” value is “not hydrolyzed” and the “% Hydrolysis” value was 0%. The “concentration” value in the data set with RNase L was above 1000 nM.

Turning to “(PR)-P-thioadenylyl-(2',5')-adenylyl-(2',5')-adenylyl-(2',5')-adenosine [ARp *ApApA]”, in the data set with HIV-1 strain IIIB, the “inhibition of HIV-1-induced syncytia formation” value is recorded as 16%. In addition, the “Percent Inhibition” value in data set [1] was found to be 57%. In the data set with serum phosphodiesterases, the “Hydrolysis Products” value is “inosine, hypoxanthine; also recorded: ARp *A”; the “% Hydrolysis” value is 50% and 100%; the “hydrolysis (in words)” value is on record as “rapidly hydrolyzed from the 2',3'-terminus”.

“(PS)-P-thioadenylyl-(2',5')-adenylyl-(2',5')-adenosine [ASp *ApA]”: in the data set on HIV-1 strain IIIB, the “inhibition of HIV-1-induced syncytia formation” value came to 15%. Further, the “Percent Inhibition” value in data set [1] turned out to be 56%. In the data set on serum phosphodiesterases, the “Hydrolysis Products” value is given as “not hydrolyzed” and the “% Hydrolysis” value was determined as 0%. Also, the “concentration” value in the data set with RNase L was above 1000 nM.

Take “(PS)-P-thioadenylyl-(2',5')-adenylyl-(2',5')-adenylyl-(2',5')-adenosine [ASp *ApApA]”: the “inhibition of HIV-1-induced syncytia formation” value with HIV-1 strain IIIB was 18%. The “Percent Inhibition” value in data set [1] is reported as 54%. Besides, in the data set with serum phosphodiesterases, the “Hydrolysis Products” value was “inosine, hypoxanthine; also recorded: ASp *A”; the “% Hydrolysis” value was 50% and 100%; the “hydrolysis (in words)” value was “rapidly hydrolyzed from the 2',3'-terminus”.

Turning to “Adenylyl-(2',5')-(PS)-P-thioadenylyl-(2',5')-adenylyl-(2',5')-adenosine [ApASp *ApA]”, in the data set on HIV-1 strain IIIB, the “inhibition of HIV-1-induced syncytia formation” value is listed as 32%. In addition, the “Percent Inhibition” value in data set [1] came out at 42%. In the data set on serum phosphodiesterases, the “Hydrolysis Products” value is given as “inosine, hypoxanthine; also recorded: ASp *ApA” and the “% Hydrolysis” value is 50%.

As for “Adenylyl-(2',5')-adenylyl-(2',5')-(PS)-P-thioadenylyl-(2',5')-adenosine [ApApASp *A]”, in the data set on HIV-1 strain IIIB, the “inhibition of syncytia formation (in words)” value was “most efficient inhibitors” and the “inhibition of HIV-1-induced syncytia formation” value turned out to be 76%. Also, the “Percent Inhibition” value in data set [1] was 62%. In the data set on serum phosphodiesterases, the “Hydrolysis Products” value is listed as “inosine, hypoxanthine; also recorded: ApASp *A”; the “% Hydrolysis” value amounted to 33%; the “hydrolysis (in words)” value is “degraded from the 5'-terminus; also recorded: hydrolyzed from the 5'-terminus”.
